Measurements from patent publication EP0126043A1, “Carbohydrate derivatives and compositions thereof for therapeutic or diagnostic use” (priority 1983, dated 1984).
Values after ≈ are worked out from the molar mass of the structure shown.

Columns and labels:
[1] = tested on: S. pneumoniae; assay: Inhibition of adherence of pneumococci to human pharyngeal epithelium cells (bacteria preincubated with free receptor); assay type: cell-based; details: for activity at 100 µg/mL / activity at 1000 µg/mL / activity at 5000 µg/mL / activity at 10000 µg/mL: read-out: Adherence % of control Average; for IC50: read-out: concentration for 50% inhibition of adherence; for inhibition of adherence (result in words): pretreatment of the pneumococci with the substance; for Inhibition of adherence % of control Average: Conc. 200 µg/ml, bacteria preincubated with the glycoconjugate before adding epithelium cells, adhesion in percent of saline control
Description: (§1) Two strains of S. Pneumoniae, EF3114 and EF 10276 (both of the capsular type 6A isolated from the nasopharynx of patients having inflammation in the middle ear) were maintained in a lyophilized state. For adherence test the lyophiles were transferred to blood agar plates and cultivated over night, were then allowed to grow for18 hours in a synthetic medium (Ref. 1) supplemented with 2 g/l ascorbic acid and such as described in (Ref. 2). The bacteria were harvested by centrifugation and suspended in saline solution (Ref. 3).
(§2) Binding to humane nasopharyngeal epithelium cells was investigated in vitro as previously described (Ref. 3). Bacterial cells (10^9/ml) and pharyngeal epithelium cells from a healthy donor (10^4/ml) were mixed, centrifugated at 1500xg for 10 minutes and incubated at 37°C for 30 minutes. After washing twice in 2.5 ml salines for separating epithelium cells from non-adhering bacteria the number of bacteria adhering at 40 epithelium cells were counted and the average number per cell was determined.
For inhibition of adhesion the bacterium concentration giving an average adhesion value of 20-300 bacteria per cell was determined. This inoculate was then preincubated with dilutions of the solutions of potential receptor activity for 15 minutes at 37°C.
Epithelium cells were added and adhesion testing was carried out as described. The adhesion was given in percent of the saline as a control sample.

[2] = tested on: S. pneumoniae; assay: Induction/increase of pneumococcal adherence by coating epithelium cells with glycoconjugate; assay type: cell-based; details: for Increase of adherence % of control Average: Conc. 200 µg/ml, epithelium cells preincubated with glycoconjugate, washed and used for adherence testing; for effect of coating of pharyngeal epithelium cells on adherence (result in words): coating with 200 µg/ml
Description: as §1
as §2, with “healthy male” for “healthy”
Association of receptor active glycolipids with epithelium cells or erythrocytes can increase binding to epithelium cells already containing the receptor or induce binding of cells which have not previously contained receptor. Rabbit erythrocytes (100 ul of a 5 % suspension) were mixed with a neolactotetraosyl ceramide, sialylneolactotetra- osyleeramide or globotetraosylceramide (500 ul of . suspensions of 200 ug/ml) and incubated at 37° for 3 hours with rotation (Ref. 16). After elimination of unbound glycolipid by repeated washing the erythrocyte concentration was again adjusted to 5 % and used for haemagglutination. Parallel to the tests regarding inhibition of adherence the humane nasopharyngeal epithelium cells were pretreated with decreasing concentrations of glycolipid, incubated for 2 hours at 37°C, washed and used for testing of adherence.

Row | Compound | activity at 100 µg/mL ([1]; Streptococcus pneumoniae) [%] | activity at 1000 µg/mL ([1]; Streptococcus pneumoniae) [%] | activity at 5000 µg/mL ([1]; Streptococcus pneumoniae) [%] | activity at 10000 µg/mL ([1]; Streptococcus pneumoniae) [%] | other results
1 | CC(=O)N[C@H]1[C@H](O[C@H]2[C@@H](O)[C@@H](CO)O[C@@H](O[C@H]3[C@H](O)[C@@H](O)C(O)O[C@@H]3CO)[C@@H]2O)O[C@H](CO)[C@@H](O[C@@H]2O[C@H](CO)[C@H](O)[C@H](O)[C@H]2O)[C@@H]1O (stereo partly shown) [Substance 5, Neolactotetraose] | 52 | 28 | 0 | 1 | IC50 ([1]; Streptococcus pneumoniae): ~400 µg/mL (≈ 565 µM)
2 | CC(=O)N[C@H]1[C@H](O[C@H]2[C@@H](O)[C@@H](CO)O[C@@H](O[C@H]3[C@H](O)[C@@H](O)C(O)O[C@@H]3CO)[C@@H]2O)O[C@H](CO)[C@@H](O)[C@@H]1O[C@@H]1O[C@H](CO)[C@H](O)[C@H](O)[C@H]1O (stereo partly shown) [Substance 6, Lactotetraose] | 68 | 25 | 4 |  | IC50 ([1]; Streptococcus pneumoniae): ~400 µg/mL (≈ 565 µM)
3 | CO[C@H]1O[C@H](CO)[C@@H](O[C@@H]2O[C@H](CO)[C@H](O)[C@H](O)[C@H]2O)[C@H](O)[C@H]1NC(C)=O [Substance 8, Methyl 2-acetamido-2-deoxy-4-O-(β-D-galactopyranosvl)-α--D-glycopyranoside] |  | 96 | 98 | 129 | inhibition of adherence (result in words) [1]: inactive
4 | CO[C@@H]1O[C@H](CO)[C@@H](O[C@@H]2O[C@H](CO)[C@H](O)[C@H](O)[C@H]2O)[C@H](O)[C@H]1NC(C)=O [Substance 9, Methyl 2-acetamido-2-deoxy-4-O-(β-D-galactopyranosyl)-β--D-glycopyranoside] |  | 96 | 45 | 29 | minimal effective concentration ([1]; Streptococcus pneumoniae, read-out: concentration at which adherence was inhibited): ~5000 µg/mL
5 | CC(=O)N[C@H]1C(O)O[C@H](CO)[C@@H](O[C@@H]2O[C@H](CO)[C@H](O)[C@H](O)[C@H]2O)[C@@H]1O (stereo partly shown) [Substance 10, N-acetyllactose amine, reference compound] |  | 95 | 144 | 127 | inhibition of adherence (result in words) [1]: inactive
6 | CO[C@@H]1O[C@H](CO)[C@H](O[C@@H]2O[C@H](CO)[C@@H](O)[C@H](O)[C@H]2NC(C)=O)[C@H](O)[C@H]1O [Substance 11, Methyl 4-0-(2-acetamido-2-deoxy-β-D-glycopyranosyl)-β-D--galactopyranoside] | 65 | 72 | 73 | 75 | inhibition of adherence (result in words) [1]: inactive
7 | CO[C@@H]1O[C@H](CO)[C@H](O)[C@H](O[C@@H]2O[C@H](CO)[C@@H](O)[C@H](O)[C@H]2NC(C)=O)[C@H]1O [Substance 12, Methyl 3-0-(2-acetamido-2-deoxy-β-D-glycopyranosyl)-β-D--galactopyranoside] | 66 | 105 | 15 | 4 | 
8 | CCO[C@@H]1O[C@H](CO)[C@@H](O[C@@H]2O[C@H](CO)[C@H](O)[C@H](O)[C@H]2O)[C@H](O)[C@H]1NC(C)=O [Substance 13, Galβ1→4GlcNAcβ1-O-Et] |  | 67 | 38 | 31 | 
9 | CCO[C@@H]1O[C@H](CO)[C@@H](O[C@@H]2O[C@H](CO)[C@H](O)[C@H](O)[C@H]2O)[C@H](O)[C@H]1O [Substance 14, Ethyl 4-0-β-D-galactopyranosyl-β-D-glycopyranoside] |  | 85 | 78 | 63 | 
10 | CO[C@@H]1O[C@H](CO)[C@H](O)[C@H](O[C@@H]2O[C@H](CO)[C@@H](O[C@@H]3O[C@H](CO)[C@H](O)[C@H](O)[C@H]3O)[C@H](O)[C@H]2NC(C)=O)[C@H]1O [Substance 15, Methyl 3-0-2-acetamido-2-deoxy-4-0-(β-D-galactopyranosyl)--β-D-glycopyranosyl-β-D-galactopyranoside] | 60 | 45 | 11 | 2 | 
11 | CO[C@@H]1O[C@H](CO)[C@@H](O[C@@H]2O[C@H](CO)[C@H](O)[C@H](O[C@@H]3O[C@H](CO)[C@@H](O[C@@H]4O[C@H](CO)[C@H](O)[C@H](O)[C@H]4O)[C@H](O)[C@H]3NC(C)=O)[C@H]2O)[C@H](O)[C@H]1O [Substance 16, Methyl 4-0-{3-0-[2-acetamido-2-deoxy-4-0-(D-galactopy-ranasyl)-β-D-glucopyranosyl]-β-D-galactopyranosyl}-β-D-glucopyranoside] | 104 | 11 | 1 | 4 | 
12 | Galβ1 → 3 GlcNAc-β1-O-Bz [Substance 17] |  |  |  |  | Adherence % of control Average ([1]; Conc. 0.1 mg/ml): 88 % of control; Adherence % of control Average ([1]; Conc. 1 mg/ml): 86 % of control; Adherence % of control Average ([1]; Conc. 5 mg/ml): 51 % of control; Adherence % of control Average ([1]; Conc. 10 mg/ml): 8 % of control
13 | N-acetylneuraminosyl neolactotetraosyl ceramide [Substance 3, reference compound] |  |  |  |  | Inhibition of adherence % of control Average [1]: 100 % of control; inhibition of adherence (result in words) [1]: no effect; Increase of adherence % of control Average [2]: 94 % of control; effect of coating of pharyngeal epithelium cells on adherence (result in words) [2]: no effect
14 | globotetraosylceramide |  |  |  |  | effect of coating of pharyngeal epithelium cells on adherence (result in words) [2]: no effect
15 | globotetraosylceramide [Substance 4, reference compound] |  |  |  |  | Increase of adherence % of control Average [2]: 100 % of control
16 | neolactotetraosyl ceramide [Substance 2] |  |  |  |  | Inhibition of adherence % of control Average [1]: 59 % of control; adherence, % of the saline as a control ([1]; pretreatment of the pneumococci, at 200 µg/ml, 15 min): 59%; Increase of adherence % of control Average [2]: 190 % of control; effect of coating of pharyngeal epithelium cells on adherence (result in words) [2]: increased adherence
